Assay results from the NIST ThermoML archive (doi:10.1016/j.jct.2004.07.018).

Test: mn = molality of the nth substance listed, in mol/kg
Conditions: 101.3 kPa, Liquid, buoyancy

CCOS(=O)(=O)[O-].CCn1cc[n+](C)c1 [1-ethyl-3-methylimidazolium ethyl sulfate] + O
Conditions | mass density [kg/m3]
278.15 K, m1 = 0.2224 | 1010
278.15 K, m1 = 0.4472 | 1019.6
278.15 K, m1 = 0.6739 | 1028.5
278.15 K, m1 = 0.903 | 1037.1
278.15 K, m1 = 1.132 | 1045.3
278.15 K, m1 = 1.364 | 1053.1
278.15 K, m1 = 1.598 | 1060.5
278.15 K, m1 = 1.835 | 1067.6
278.15 K, m1 = 2.072 | 1074.2
278.15 K, m1 = 2.313 | 1080.5
278.15 K, m1 = 2.554 | 1086.4
278.15 K, m1 = 2.798 | 1092.2
278.15 K, m1 = 3.044 | 1098.2
283.15 K, m1 = 0.2224 | 1009.6
283.15 K, m1 = 0.4472 | 1018.9
283.15 K, m1 = 0.6739 | 1027.7
283.15 K, m1 = 0.903 | 1036.1
283.15 K, m1 = 1.132 | 1044
283.15 K, m1 = 1.364 | 1051.5
283.15 K, m1 = 1.598 | 1058.8
283.15 K, m1 = 1.835 | 1065.6
283.15 K, m1 = 2.072 | 1072
283.15 K, m1 = 2.313 | 1078.2
283.15 K, m1 = 2.554 | 1084
283.15 K, m1 = 2.798 | 1089.6
283.15 K, m1 = 3.044 | 1095
288.15 K, m1 = 0.2224 | 1008.7
288.15 K, m1 = 0.4472 | 1017.8
288.15 K, m1 = 0.6739 | 1026.5
288.15 K, m1 = 0.903 | 1034.8
288.15 K, m1 = 1.132 | 1042.6
288.15 K, m1 = 1.364 | 1050.1
288.15 K, m1 = 1.598 | 1057.2
288.15 K, m1 = 1.835 | 1063.8
288.15 K, m1 = 2.072 | 1070.2
288.15 K, m1 = 2.313 | 1076.2
288.15 K, m1 = 2.554 | 1082
288.15 K, m1 = 2.798 | 1087.4
288.15 K, m1 = 3.044 | 1092.5
293.15 K, m1 = 0.2224 | 1007.6
293.15 K, m1 = 0.4472 | 1016.7
293.15 K, m1 = 0.6739 | 1025.2
293.15 K, m1 = 0.903 | 1033.3
293.15 K, m1 = 1.132 | 1041
293.15 K, m1 = 1.364 | 1048.3
293.15 K, m1 = 1.598 | 1055.2
293.15 K, m1 = 1.835 | 1061.9
293.15 K, m1 = 2.072 | 1068.1
293.15 K, m1 = 2.313 | 1074.1
293.15 K, m1 = 2.554 | 1079.6
293.15 K, m1 = 2.798 | 1085
293.15 K, m1 = 3.044 | 1090
298.15 K, m1 = 0.2224 | 1006.3
298.15 K, m1 = 0.4472 | 1015
298.15 K, m1 = 0.6739 | 1023.3
298.15 K, m1 = 0.903 | 1031.2
298.15 K, m1 = 1.132 | 1038.7
298.15 K, m1 = 1.364 | 1045.7
298.15 K, m1 = 1.598 | 1052.5
298.15 K, m1 = 1.835 | 1058.9
298.15 K, m1 = 2.072 | 1064.9
298.15 K, m1 = 2.313 | 1070.6
298.15 K, m1 = 2.554 | 1076.1
298.15 K, m1 = 2.798 | 1081.3
298.15 K, m1 = 3.044 | 1086.2
303.15 K, m1 = 0.2224 | 1004.7
303.15 K, m1 = 0.4472 | 1013.3
303.15 K, m1 = 0.6739 | 1021.6
303.15 K, m1 = 0.903 | 1029.3
303.15 K, m1 = 1.132 | 1036.8
303.15 K, m1 = 1.364 | 1043.9
303.15 K, m1 = 1.598 | 1050.6
303.15 K, m1 = 1.835 | 1057
303.15 K, m1 = 2.072 | 1062.9
303.15 K, m1 = 2.313 | 1068.6
303.15 K, m1 = 2.554 | 1074.1
303.15 K, m1 = 2.798 | 1079.4
303.15 K, m1 = 3.044 | 1084.3
308.15 K, m1 = 0.2224 | 1002.9
308.15 K, m1 = 0.4472 | 1011.6
308.15 K, m1 = 0.6739 | 1019.6
308.15 K, m1 = 0.903 | 1027.7
308.15 K, m1 = 1.132 | 1034.6
308.15 K, m1 = 1.364 | 1041.5
308.15 K, m1 = 1.598 | 1048.3
308.15 K, m1 = 1.835 | 1054.6
308.15 K, m1 = 2.072 | 1060.5
308.15 K, m1 = 2.313 | 1066.2
308.15 K, m1 = 2.554 | 1071.7
308.15 K, m1 = 2.798 | 1076.8
308.15 K, m1 = 3.044 | 1081.8
313.15 K, m1 = 0.2224 | 1001.1
313.15 K, m1 = 0.4472 | 1009.6
313.15 K, m1 = 0.6739 | 1017.9
313.15 K, m1 = 0.903 | 1025.6
313.15 K, m1 = 1.132 | 1032.8
313.15 K, m1 = 1.364 | 1039.7
313.15 K, m1 = 1.598 | 1046.4
313.15 K, m1 = 1.835 | 1052.8
313.15 K, m1 = 2.072 | 1058.8
313.15 K, m1 = 2.313 | 1064.4
313.15 K, m1 = 2.554 | 1069.8
313.15 K, m1 = 2.798 | 1074.9
313.15 K, m1 = 3.044 | 1079.8
318.15 K, m1 = 0.2224 | 999
318.15 K, m1 = 0.4472 | 1007.5
318.15 K, m1 = 0.6739 | 1015.6
318.15 K, m1 = 0.903 | 1023.1
318.15 K, m1 = 1.132 | 1030.4
318.15 K, m1 = 1.364 | 1037.3
318.15 K, m1 = 1.598 | 1043.9
318.15 K, m1 = 1.835 | 1050.2
318.15 K, m1 = 2.072 | 1056.1
318.15 K, m1 = 2.313 | 1061.7
318.15 K, m1 = 2.554 | 1067.1
318.15 K, m1 = 2.798 | 1072.3
318.15 K, m1 = 3.044 | 1077.1
323.15 K, m1 = 0.2224 | 996.6
323.15 K, m1 = 0.4472 | 1005.1
323.15 K, m1 = 0.6739 | 1013
323.15 K, m1 = 0.903 | 1020.5
323.15 K, m1 = 1.132 | 1027.9
323.15 K, m1 = 1.364 | 1034.7
323.15 K, m1 = 1.598 | 1041.3
323.15 K, m1 = 1.835 | 1047.7
323.15 K, m1 = 2.072 | 1053.6
323.15 K, m1 = 2.313 | 1059.4
323.15 K, m1 = 2.554 | 1064.8
323.15 K, m1 = 2.798 | 1070
323.15 K, m1 = 3.044 | 1074.9
328.15 K, m1 = 0.2224 | 994.1
328.15 K, m1 = 0.4472 | 1002.6
328.15 K, m1 = 0.6739 | 1010.6
328.15 K, m1 = 0.903 | 1018.1
328.15 K, m1 = 1.132 | 1025.3
328.15 K, m1 = 1.364 | 1032.1
328.15 K, m1 = 1.598 | 1038.7
328.15 K, m1 = 1.835 | 1045.1
328.15 K, m1 = 2.072 | 1051.1
328.15 K, m1 = 2.313 | 1056.8
328.15 K, m1 = 2.554 | 1062.4
328.15 K, m1 = 2.798 | 1067.4
328.15 K, m1 = 3.044 | 1072.7
333.15 K, m1 = 0.2224 | 991.4
333.15 K, m1 = 0.4472 | 999.8
333.15 K, m1 = 0.6739 | 1007.7
333.15 K, m1 = 0.903 | 1015.4
333.15 K, m1 = 1.132 | 1022.7
333.15 K, m1 = 1.364 | 1029.7
333.15 K, m1 = 1.598 | 1036.4
333.15 K, m1 = 1.835 | 1042.7
333.15 K, m1 = 2.072 | 1048.9
333.15 K, m1 = 2.313 | 1054.9
333.15 K, m1 = 2.554 | 1060.4
333.15 K, m1 = 2.798 | 1065.8
333.15 K, m1 = 3.044 | 1070.9
